In patent US20020028790A1, “Use of agonists or antagonists of P2 purinoceptors for the prevention glutamate-evoked cytotoxicity” (priority 1995, published 2002):

What was measured:
[1] = test system: cerebellar granule neurons; assay: Glutamate-evoked cytotoxicity in cerebellar granule primary cultures (cell survival by count of intact viable nuclei); type: cell-based; conditions: for cellular survival / abolition of the cytotoxic action of glutamate: 100 μM compound in the simultaneous presence of 100 μM glutamate (acute exposure); for total neuronal population protected from cell death: incubated for the next 20 hours
Source text: Always according to the present invention, these compounds are used to prevent glutamate-evoked cytotoxicity in the nervous system's cells, particularly in CNS neurons. As a cellular model system for CNS neurons we have adopted postnatal rat cerebellar neurons. These cells, which are among the best characterized primary neuronal cultures, when isolated from postnatal rat cerebellum (Lasher R. S., and Zagon I. S., Brain Res. 41, 428-438, 1972), develop in vitro their mature phenotype as interneurons which use glutamate as a neurotransmitter and furthermore constitute an excellent model system for the study of glutamate-mediated cytotoxicity.
By exposing granule neurons to 100 μM glutamate for 15-30 min is obtained (after 15-20 hours) 80-100% of total cell death. […] The effects of basilen blue on cerebellar granule cell morphology reveal, despite the exposure to glutamate, which otherwise induces complete cell death, apparently healty-looking cell bodies that do bear a dense network of highly branching processes. Adhesion and neurites fasciculation are also preserved by basilen blue.
Basilen Blue prevents cytotoxicity induced by glutamate in cerebellar granule primary cultures: effects of dose-response and modality of addition. Replicate cerebellar granule cultures at 8 DIV were exposed for 25 min to 100 μM glutamate, in the simultaneous presence of different concentrations of basilen blue (FIG. 1). After 20 hours, the cultures were assessed for cultures were assessed for cell survival by direct count of intact viable nuclei. The asterisk represents the % of nuclei obtained after simultaneous addition to the cells of 100 μM glutamate and 100 μM caffeine. In FIG. 2, replicate cerebellar granule cultures at 8 DIV were exposed for 25 min to 100 μM glutamate. At different time after glutamate withdrawl, basilen blue (100 μM) was added to the medium until the cultures, 20 hours later, were assessed for cell survival by direct count of intact viable nuclei. The asterisk represents the % of nuclei obtained after simultaneous addition to the cells of 100 μM glutamate and 100 μM basilen blue. In FIG. 3, replicate cultures were pretreated in the presence of 100 μM basilen blue for different time, before the addition of 100 μM glutamate for 25 min (performed in the absence of basilen blue). After 20 hours the cultures were assessed for cell survival.
The asterisk represents the % of nuclei obtained after simultaneous addition to the cells of 100 μM glutamate and 100 μM basilen blue. Counts represent means±SEM (n=4) and 100% of cell survival represents 1.75−2×10^6 total cells.
METHODS. Approximately 20 hours after exposure of granule cells to glutamate, the culture medium was removed and replaced with 1 ml of a detergent-containing lysing solution (0.5% ethyl hexadecyl dimethyl—ammonium bromide, 0.28% acetic acid, 0.5% Triton X-100, 3 mM NaCl, 2 mM MgCl2, in PBS pH 7.4 diluted 1/10).
After 1-2 minutes, the cells were triturated a few times, providing a uniform uspension of single, intact viable nuclei. The latter were quantified by ounting in a hemacytometer. Broken or damaged nuclei were not included in the counts.
Culturing cerebellar granule cells in the presence of AMPPNP: modulation of glutamate-dependent cell death, Ca^++ uptake and aspartate release. Primary cerebellar granule cultures were prepared and starting at 1 DIV some of time were daily supplemented with 100 μM AMPPNP.(FIG. 6) At 8 DIV, after two washes, some of the cultures were incubated at 20° C. for 25 min with 100 μM glutamate. The following day, they were assessed for cell survival, as previously described.

[2] = test system: cerebellar granule neurons; assay: Glutamate-induced release of [3H] aspartate from cerebellar granule cells; type: cell-based, rat
Source text: Since D-[^3H] aspartate release has been often used as a measure of the functional state of cerebellar granule neurons cultured in vitro and depolarization- or glutamate-evoked aspartate release is a feature progressively aquired by these cells along with neuronal maturation, we decided to test this parameter to further study the biological effects and possible mechanisms used by basilen blue in the prevention of cell death. We find that basilen blue inhibits glutamate-induced release of [^3H] aspartate with an IC50 of about 10 μM. […] Also a cronic exposure of granule neurons for 8 days to 100 μM AMPPNP inhibits by 70-80% the glutamate-evoked release of [^3H] aspartate.
(§1) (FIG. 7) Replicate cerebellar granule cultures at 8 DIV were incubated for 1 min in Locke's solution in the presence of 45 Ca^++ (1 μCi/ml), with or without 100 μM glutamate, and were then assessed for Ca^++ influx. (FIG. 8) Replicate cerebellar granule cultures at 8 DIV were incubated for 5 min in Locke's solution, in the presence of [^3H] D-2,3 aspartic acid (1 μCi/ml, final concentration 40 nM) and were then assessed for aspartate release, in the presence or absence of 100 μM glutamate. Data are expressed as means±SEM (n=3).
(§2) Basilen Blue inhibits release of aspartate and uptake of Ca^++ induced by glutamate in cerebellar granule cells. (FIG. 9) Replicate cerebellar granule cultures at 8 DIV were incubated for 5 min in Locke's solution in the presence of [^3H] D-2,3 aspartic acid (1 μCi/ml, final concentration 40 nM). After two washes, the cultures were then incubated for 1 min in Locke's solution with or without 100 μM glutamate and in the presence of different concentrations of basilen blue. The buffer removed from the cultures during this release phase was collected into vials and counted for radioactivity. The asterisk represents the release of aspartate obtained in the simultaneous presence of 100 μM glutamate and 100 μM caffeine. Cells were dissolved in 0.1 M NaOH and protein concentrations were determined by the method of Bradford, with bovine serum albumin as standard. (FIG. 10) Replicate cerebellar granule cultures at 8 DIV were incubated for 1 min in Locke's solution in the presence of 45 Ca^++ (1 μCi/ml), with our without 100 μM glutamate, and in the simultaneous presence of different concentrations of basilen blue. After two washes with ice-cold 154 mM choline chloride, 2 mM EDTA, the cells were lysed in 0.1 M NaOH and aliquots were collected for measuring Ca^++ influx (by radioactive counting) and protein concentration. The asterisk represents the Ca^++ influx obtained in the simultaneous presence of 100 μM glutamate and 100 μM caffeine. Data are expressed as means±SEM (n=3).

[3] = test system: cerebellar granule neurons; assay: Glutamate-evoked Ca2+ uptake in cerebellar granule cells; type: cell-based, rat
Method: Glutamate-dependent neurotoxicity is often accompanied also in cerebellar granule neurons with increase in intracellular Ca^2+ via a multistep process. […] Also this value is in accordance with the IC50 found for inhibition of ATP binding, cytotoxicity and aspartate release. The basilen blue-dependent inhibition occurs when Ca^2+ uptake is measured for short (1 min) or for longer times (3, 10, and 25 min). The cronic exposure of granule neurons for 8 days to 100 μM AMPPNP inhibits by 50-70% glutamate-evoked Ca^2+ influx, similarly to the inhibition of cytotoxicity and aspartate release.
as §1, §2

[4] = test system: membranes of granule neurons ([3H] ATP binding); assay: Binding of [3H] ATP to cerebellar granule cell membranes; set-up: species or system rat; conditions: 1 h at 4° C, read-out: IC50 for inhibition of binding of [3H] ATP to membranes
Method: (§3) Basilen blue inhibits binding of [^3H] ATP to membranes of granule neurons with an IC50 of about 10 μM, that corresponds to the IC50 that prevents glutamate-evoked cytotoxicity. Binding studies with [^3H]
Basilen Blue inhibits binding of ATP to cerebellar granule cell membranes, but to uptake of aspartate. Membranes were prepared from 8 DIV cerebellar granule ells and 20 μg of protein were incubated with [^3H] ATP (0.5 μCi/ml, final concentration […]) (FIG. 4), in the presence of different concentrations of basilen blue, for 1 h at 4° C. Specific binding is shown and counts represent means±SEM (n=3). The asterisk represents the binding performed in the presence of 100 μM caffeine. In FIG. 5, replicate cerebellar granule cultures at 8 DIV were washed wice and incubated for different times in Locke's solution with [^3H] […] After two washes, cells were dissolved in 0.1 M NaOH and counted for incorporated radioactivity by liquid scintillation counting. […] Protein concentrations were determined by the method of Bradford with ovine serum albumin as standard.
METHODS. […] ATP, the samples (1 ml) were vacuum-filtered through Whatman GF/B glass fiber filters and the filters were immediately washed (3×4 s) with 5 ml of 50 mM Tris-HCl (pH 7.4), air dried and assessed for specifically bound radioactivity by liquid scintillation counting.

[5] = test system: intact cells (granule neurons, [3H] ATP binding); assay: Binding of [3H] ATP to intact cells; set-up: species or system rat
Method: as §3

[6] = test system: cerebellar granule neurons; assay: Uptake of [3H] aspartate by cerebellar granule cultures; type: cell-based, rat; conditions: same basilen blue treatments as for cytotoxicity
Method: The effects of basilen blue on protection from cytotoxicity are linear with time and depend on the modality of somministration of the compound. When basilen blue is added to the cells 10 min after glutamate, and then incubated with granule neurons for only 15 min, it protects from cell death 60-70% of the entire neuronal population; if somministered only for the last 5 min of treatment of the cells with glutamate, basilen blue sustains survival of 25-40% of total neurons. When instead it is added 1-2 min or 30 min or 2 hours after exposure of granule neurons to glutamate (and then incubated with the cells for the next 20 hours) basilen blue protects from cell death respectively 55-70%, 30% and 10% of the total neuronal population. When it is added before (not during or after) exposure of granule neurons to glutamate, basilen blue requires a pretreatment of at least 20-25 hours in order to prevent by 70-80% the cytotoxic action of glutamate. Inhibition of aspartate uptake is not obtained as a consequence of these same treatments.
Basilen Blue inhibits binding of ATP to cerebellar granule cell membranes, but to uptake of aspartate. […] After two washes, cells were dissolved in 0.1 M NaOH and counted for incorporated radioactivity by liquid scintillation counting. […] Protein concentrations were determined by the method of Bradford with ovine serum albumin as standard.

[7] = chronic exposure for 8 days to 100 μM

## Nc1ncnc2c1ncn2C1OC(COP(=O)(O)OP(=O)(O)NP(=O)(O)O)C(O)C1O (stereo not drawn) [AMPPNP, 5-adenylylimidodiphosphate]
[1]
  cellular survival / abolition of the cytotoxic action of glutamate: not effective
[1]; cells cultured in continuous presence of 100 μM compound from day 1 (not later than day 2) in vitro
  inhibition of glutamate-induced cytotoxicity: 50-60%
[2]; [7]
  inhibition of glutamate-evoked release of [3H] aspartate: 70-80%
[3]; [7]
  inhibition of glutamate-evoked Ca2+ influx: 50-70%

## Cn1c(=O)c2c(ncn2C)n(C)c1=O [Caffeine]
[1]; up to 100 μM
  abolition of the cytotoxic action of glutamate: does not abolish

## Nc1c(S(=O)(=O)O)cc(Nc2ccc(Nc3nc(Cl)nc(Nc4ccccc4S(=O)(=O)O)n3)c(S(=O)(=O)O)c2)c2c1C(=O)c1ccccc1C2=O [cibacron blue, Cibacron Blue 3GA]
[1]
  prevention of glutamate-evoked cell death (in words): effective

## Basilen Blue E 3G
[1]
  cellular survival / abolition of the cytotoxic action of glutamate: completely sustains cellular survival
[1]; 100 μM glutamate, compound present simultaneously, read-out: IC50 for prevention of glutamate-evoked cell death
  IC50: 10 to 20 µM
[1]; added 1-2 min after exposure to glutamate
  total neuronal population protected from cell death: 55-70%
[1]; added 10 min after glutamate, then incubated with neurons for only 15 min
  neuronal population protected from cell death: 60-70%
[1]; added 30 min after exposure to glutamate
  total neuronal population protected from cell death: 30%
[1]; added 2 hours after exposure to glutamate
  total neuronal population protected from cell death: 10%
[1]; despite exposure to glutamate, 100 μM basilen blue
  adhesion and neurites fasciculation: preserved
[1]; given only for the last 5 min of glutamate treatment
  survival of total neurons: 25-40%
[1]; within the first 5 min of treatment with glutamate, basilen blue added
  acute response (rapid swelling of the cell body and loss of brightness): prevented
[4]
  IC50: ~10 µM
[5]
  inhibition of [3H] ATP binding to intact cells: as effective
[2]; 100 μM glutamate, read-out: IC50 for inhibition of glutamate-induced release of [3H] aspartate
  IC50: ~10 µM
[2]; release measured for 1, 3, 10, 25 min or in presence of Mg2+
  extent of inhibition of glutamate-induced [3H] aspartate release: almost complete
[2]; without glutamate
  basal release of [3H] aspartate: does not affect
[3]; 100 μM glutamate, read-out: IC50 for inhibition of glutamate-evoked Ca2+ uptake
  IC50: ~10 µM
[3]; uptake measured for 1, 3, 10 and 25 min
  extent of inhibition of glutamate-evoked Ca2+ uptake: almost completely abolishes
[3]; without glutamate
  basal Ca2+ uptake: not basal
[6]
  inhibition of aspartate uptake: not obtained
